In patent US20080167314A1, “Condensed Imidazole Compound And Use Thereof” (priority 2004, published 2008):

What was measured:
[1] = target: T1, active form p38 MAP kinase (Homo sapiens, UniProt Q16539); assay: Measurement of the p38 MAP kinase inhibitory activity (32P uptake into Myelin Basic Protein); assay type: biochemical; details: 260 ng active form p38 MAP kinase, 1 μg Myelin Basic Protein, 2.5 μM ATP solution, 30° C. for 60 minutes
T1 construct: made in house; host or cells: Sf-21 insect cells, baculovirus BAC-HP38 co-infected with BAC-caMKK3
T1 sequence (Q16539 whole entry): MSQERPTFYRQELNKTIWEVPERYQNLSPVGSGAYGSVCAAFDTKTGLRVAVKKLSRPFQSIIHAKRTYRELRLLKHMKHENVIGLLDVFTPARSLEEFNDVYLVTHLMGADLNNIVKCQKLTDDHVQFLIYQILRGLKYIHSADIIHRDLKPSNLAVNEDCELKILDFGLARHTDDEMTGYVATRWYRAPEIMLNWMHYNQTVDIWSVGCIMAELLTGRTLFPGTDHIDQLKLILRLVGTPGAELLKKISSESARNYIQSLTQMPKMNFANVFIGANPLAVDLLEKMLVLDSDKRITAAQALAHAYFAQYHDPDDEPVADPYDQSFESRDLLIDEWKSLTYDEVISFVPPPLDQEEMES
Protocol: (1) Cloning of Human p38 MAP Kinase Gene and Preparation of Recombinant Baculovirus
Cloning of human p38 MAP kinase gene was performed by a PCR method using a primer set P38-U:
(3) Preparation of Active Form p38 MAP Kinase
The Sf-21 cells were seeded on 100 ml Sf-900II SFM medium (GIBCOBRL) to 1×10^6 cells/mL and cultured at 27° C. for 24 hours. After each 0.2 mL of the virusstock BAC-HP38 of recombinant Baculovirus and BAC-caMKK3 were added, the culturing was further performed for 48 hours. After the cells were separated from the culturing solution by centrifugation (3000 rpm, 10 min), the cells were washed twice with PBS. After the cells were suspended in 10 ml Lysis buffer (25 mM HEPES (pH 7.5), 1% Triton X, 130 mM NaCl, 1 mM EDTA, 1 mM DTT, 25 mM β-glycerophosphate, […], 1 mM APMSF, 1 mM Sodium orthovanadate), the cells were lysed by treating twice with a homogenizer (POLYTRON) at 20000 rpm for 2 minutes. By using Anti-FLAG M2 Affinity Gel (Eastman Chemical), active form p38 MAP kinase was purified from the supernatant obtained by centrifugation (40000 rpm, 45 minutes).
(4) Measurement of the p38 MAP Kinase Inhibitory Activity
2.5 μL of a test compound dissolved in DMSO was added to 37.5 μL reaction solution (25 mM HEPES (pH 7.5), 10 mM Magnesium Acetate) containing 260 ng active form p38 MAP kinase and 1 μg Myelin Basic Protein, which was maintained at 30° C. for 5 minutes. The reaction was initiated by adding 10 μL ATP solution (2.5 μM ATP, 0.1 μCi [g-^32P]ATP). After the reaction was performed at 30° C. for 60 minutes, the reaction was stopped by adding 50 μL 20% TCA solution. After the reaction solution was allowed to stand at 0° C. for 20 minutes, an acid insoluble fraction was transferred to GF/C filter (Packard Japan) using Cell Harvester (Packard Japan) and washed with 250 mM H3PO4. After drying at 45° C. for 60 minutes, […] Microscint 0 (Packard Japan) was added and the radioactivity was measured with a TopCount (Packard Japan). The concentration (IC50 value) necessary for inhibiting uptake of ^32P into an acid insoluble fraction by 50% was calculated with PRISM 2.01 (Graphpad Software).

[2] = test system: TNF-α production in THP-1 cells; assay: Measurement of TNF-α production inhibitory activity in LPS-stimulated THP-1 cells (ELISA); assay type: cell-based; details: Homo sapiens, LPS 5 μg/mL, 4 hours, TNF-α in supernatant by ELISA
Protocol: Measurement of TNF-α Production Inhibitory Activity
After THP-1 cells which had been cultured in PRMI 1640 medium (manufactured by Life Technologies, Inc.) containing 1% non-activated bovine fetal serum (manufactured by Life Technologies, Inc., U.S.A.) and 10 mM HEPES (pH 7.5) was plated on a 96-well plate to 1×10^5 cells/well, 1 μL test compound dissolved in DMSO was added to there. After incubation at 37° C. for 1 hour in a CO2 incubator, LPS (Wako Pure Chemicals) was added to the final concentration 5 μg/mL. After cultured at 37° C. for 4 hours in a CO2 incubator, the supernatant was obtained by centrifugation. The concentration of TNF-α in the supernatant was measured with ELISA (R&D System, Quantikine Kit). The concentration (IC50 value) necessary for inhibiting TNF-α production by 50% was calculated by PRIMS 2.01 (Graphpad Software).

[3] = test system: MMP-13 production in human normal articular chondrocytes; assay: Measurement of MMP-13 production inhibitory activity in rhIL-1β-stimulated human normal articular chondrocytes (ELISA); assay type: cell-based; details: Chondrocyte, rhIL-1β 0.1 ng/mL, 24 hr, MMP-13 in culture supernatant by ELISA
Protocol: Measurement of MMP-13 Production Inhibitory Activity
Human normal articular chondrocytes (Camblex) were grown in a chondrocyte growth medium (CGM: Camblex), and the cells were suspended in a chondrocyte differentiation medium (CDM: Camblex) and plated on a 96 well plate at 2×10^4 cells/well (150 μL/well). After culturing for 3 days under 37° C., 5% CO2 conditions, the culture medium was exchanged to 0.1% BSA added α-modification of Eagle's (α-MEM: Gibco), and the cells were cultured for 4 hr. The compound was added thereto and, after culture for 1 hr, recombinant human IL-1β (rhIL-1β: R&D systems) was added at 0.1 ng/mL. After culture for 24 hr, the culture supernatant was recovered, and the concentration of MMP-13 in the culture supernatant was measured by the ELISA method (Amersham).

SMILES | IC50 [1] [µM] | IC50 [2] [µM] | IC50 [3] [µM]
Cc1cccc(-c2nc3ccc(Cl)nn3c2-c2ccnc(F)c2)c1 [Example 1, 6-Chloro-3-(2-fluoropyridin-4-yl)-2-(3-methylphenyl)imidazo[1,2-b]pyridazine] | 0.11 | 0.95 | 0.6
Cc1cccc(-c2nc3ccc(Cl)nn3c2-c2ccnc(NC3CCCCC3)c2)c1 [Example 2, 4-[6-Chloro-2-(3-methylphenyl)imidazo[1,2-b]pyridazin-3-yl]-N-cyclohexylpyridin-2-amine] | 0.19 | 0.028 | 0.011
Cc1cccc(-c2nc3cccnn3c2-c2ccnc(F)c2)c1 [Example 4, 3-(2-fluoropyridin-4-yl)-2-(3-methylphenyl)imidazo[1,2-b]pyridazine] | 0.16 | 0.32 | 1.52
Cc1cccc(-c2nc3cccnn3c2-c2ccnc(NCC3CC3)c2)c1 [Example 5, N-(Cyclopropylmethyl)-4-[2-(3-methylphenyl)imidazo[1,2-b]pyridazin-3-yl]pyridin-2-amine] | 0.0025 | 0.0039 | 0.011
Cc1cccc(-c2nc3ccc(N(C)C)nn3c2-c2ccnc(NC3CCCCC3)c2)c1 [Example 7, 3-[2-(cyclohexylamino)pyridin-4-yl]-N,N-dimethyl-2-(3-methylphenyl)imidazo[1,2-b]pyridazin-6-amine] | 0.0087 | 0.0001 | 0.0051
CC(=O)Nc1cc(-c2c(-c3cccc(C)c3)nc3ccc(Cl)nn23)ccn1 [Example 17, N-{4-[6-Chloro-2-(3-methylphenyl)imidazo[1,2-b]pyridazin-3-yl]pyridin-2-yl}acetamide] | 0.023 | 0.12 | 0.22
Cc1cccc(-c2nc3cccnn3c2-c2ccnc(NC(=O)c3ccccc3)c2)c1 [Example 19, N-{4-[2-(3-Methylphenyl)imidazo[1,2-b]pyridazin-3-yl]pyridin-2-yl}benzamide] | – | 0.018 | 0.073
Cc1ccc(C(=O)Nc2cc(-c3c(-c4cccc(C)c4)nc4cccnn34)ccn2)cc1 [Example 20-1, 4-methyl-N-{4-[2-(3-methylphenyl)imidazo[1,2-b]pyridazin-3-yl]pyridin-2-yl}benzamide] | 0.0084 | 0.018 | 0.073
COc1ccc(C(=O)Nc2cc(-c3c(-c4ccc(F)c(C)c4)nc4cccnn34)ccn2)cc1 [Example 21-16, N-{4-[2-(4-fluoro-3-methylphenyl)imidazo[1,2-b]pyridazin-3-yl]pyridin-2-yl}-4-methoxybenzamide] | 0.0012 | 0.014 | 0.041
Cc1cccc(-c2nc3cccnn3c2-c2ccnc(NC(=O)Nc3ccccc3)c2)c1 [Example 26, N-{4-[2-(3-Methylphenyl)imidazo[1,2-b]pyridazin-3-yl]pyridin-2-yl}-N′-phenylurea] | 0.022 | 0.33 | 0.077
Cc1cc(-c2nc3cccnn3c2-c2ccnc(NC(=O)c3ccc(F)cc3)c2)ccc1F [Example 41-1, 4-fluoro-N-{4-[2-(4-fluoro-3-methylphenyl)imidazo[1,2-b]pyridazin-3-yl]pyridin-2-yl}benzamide] | 0.0081 | 0.015 | 0.035
Cc1cc(-c2nc3cccnn3c2-c2ccnc(NC(=O)C3CC3)c2)ccc1F [Example 42-3, N-{4-[2-(4-fluoro-3-methylphenyl)imidazo[1,2-b]pyridazin-3-yl]pyridin-2-yl}cyclopropanecarboxamide] | 0.0087 | 0.0095 | 0.035
CSCC(=O)Nc1cc(-c2c(-c3ccc(F)c(C)c3)nc3cccnn23)ccn1 [Example 42-6, N-{4-[2-(4-fluoro-3-methylphenyl)imidazo[1,2-b]pyridazin-3-yl]pyridin-2-yl}-2-(methylthio)acetamide] | 0.0077 | 0.0061 | 0.011
Cc1cc(-c2nc3cccnn3c2-c2ccnc(NC(=O)c3ccncc3)c2)ccc1F [Example 42-23, N-{4-[2-(4-fluoro-3-methylphenyl)imidazo[1,2-b]pyridazin-3-yl]pyridin-2-yl}isonicotinamide] | – | 0.01 | 0.014
Cc1ccc(C(=O)Nc2cc(-c3c(-c4ccc(F)c(C)c4)nc4cccnn34)ccn2)cn1 [Example 42-27, N-{4-[2-(4-fluoro-3-methylphenyl)imidazo[1,2-b]pyridazin-3-yl]pyridin-2-yl}-6-methylnicotinamide] | – | 0.0015 | 0.016
Cc1cc(-c2nc3cccnn3c2-c2ccnc(NC(=O)c3ccc4ncsc4c3)c2)ccc1F [Example 42-35, N-{4-[2-(4-fluoro-3-methylphenyl)imidazo[1,2-b]pyridazin-3-yl]pyridin-2-yl}-1,3-benzothiazole-6-carboxamide] | 0.0039 | 0.0025 | 0.0062
Cc1cc(-c2nc3cccnn3c2-c2ccnc(NC(=O)c3ccc4ncccc4c3)c2)ccc1F [Example 42-36, N-{4-[2-(4-fluoro-3-methylphenyl)imidazo[1,2-b]pyridazin-3-yl]pyridin-2-yl}-6-quinolinecarboxamide] | 0.0034 | 0.0071 | 0.011
Cc1cc(-c2nc3cccnn3c2-c2ccnc(NC(=O)NCCO)c2)ccc1F [Example 51-11, N-{4-[2-(4-fluoro-3-methylphenyl)imidazo[1,2-b]pyridazin-3-yl]pyridin-2-yl}-N′-(2-hydroxyethyl)urea] | 0.007 | 0.01 | 0.064
Cc1cc(-c2nc3cccnn3c2-c2ccnc(NC(=O)NCCC#N)c2)ccc1F [Example 51-14, N-(2-cyanoethyl)-N′-{4-[2-(4-fluoro-3-methylphenyl)imidazo[1,2-b]pyridazin-3-yl]pyridin-2-yl}urea] | 0.0049 | 0.001 | 0.032
Cc1cc(C(=O)Nc2cc(-c3c(-c4ccc(F)c(C)c4)nc4cccnn34)ccn2)ccn1 [Example 58, N-{4-[2-(4-Fluoro-3-methylphenyl)imidazo[1,2-b]pyridazin-3-yl]pyridin-2-yl}-2-methylisonicotinamide] | – | 0.0022 | 0.041
Cc1cc(-c2nc3cccnn3c2-c2ccnc(NC(=O)c3cccnc3)c2)ccc1F [Example 59, N-{4-[2-(4-Fluoro-3-methylphenyl)imidazo[1,2-b]pyridazin-3-yl]pyridin-2-yl}nicotinamide] | – | 0.0029 | 0.02
Cc1cccc(-c2nc3cccnn3c2-c2ccnc(Nc3ccccc3C)c2)c1 [Example Compound 6-10, N-(2-methylphenyl)-4-[2-(3-methylphenyl)imidazo[1,2-b]pyridazin-3-yl]pyridin-2-amine] | 0.0026 | 0.0098 | 0.082
